In publication PMC9144402, “An Octopus-Derived Peptide with Antidiuretic Activity in Rats” (Marine Drugs, 2022):

Experiments:
human OXTR [1] = biological target: T1, human OXTR (Homo sapiens, UniProt P30559); assay: OXTR functional assay, agonist effect (intracellular Ca^2+ increase, fluorimetry, transfected ECV304 cells); assay type: cell-based; settings: up to 50 μM, RT, % of control response (1 µM OXT), triplicate
T1 construct: host or cells: ECV304
T1 sequence (P30559 1-389): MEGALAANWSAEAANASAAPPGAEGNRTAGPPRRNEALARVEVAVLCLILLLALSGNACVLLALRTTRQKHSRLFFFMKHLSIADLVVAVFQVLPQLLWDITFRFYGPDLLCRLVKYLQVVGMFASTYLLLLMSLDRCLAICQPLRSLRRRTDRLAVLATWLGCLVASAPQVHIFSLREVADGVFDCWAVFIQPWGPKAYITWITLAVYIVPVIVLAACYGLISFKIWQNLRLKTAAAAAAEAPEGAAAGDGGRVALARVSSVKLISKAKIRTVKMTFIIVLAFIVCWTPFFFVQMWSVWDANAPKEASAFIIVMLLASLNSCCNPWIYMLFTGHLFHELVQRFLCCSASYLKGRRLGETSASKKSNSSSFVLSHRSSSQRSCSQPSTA
Method: (§1) Detailed information about the cells tested and other experimental conditions are described in Table 2. Briefly, cells were transfected with a recombinant expression vector capable of expressing each type of human OXT/AVP receptor. To evaluate the agonist effects on OXTR, V1aR, and V1bR, the intracellular Ca^2+ increase after treatment with OTP or CPT was measured by fluorimetry. […] For V2R receptors, cells were treated with peptides with or without the stimulant for 30 min. After that, cyclic AMP (cAMP) concentrations were measured by homogeneous time-resolved fluorescence (HTRF). The results were represented as the percent submaximal response achieved by the stimulant. All experiments were performed in triplicate. Data are presented as the mean ± standard error of the mean. The 50% effective concentration (EC50) and 50% inhibitory concentration (IC50) values were determined using a 4-parameter logistic fitting of a dose–response curve using SigmaPlot 10.0 (Systat Software, Palo Alto, CA, USA).

human OXTR [2] = biological target: T1, human OXTR; assay: OXTR functional assay, antagonist effect (30 nM OXT-induced intracellular Ca^2+, fluorimetry, ECV304 cells); assay type: cell-based; settings: 50 μM; ECV304; stimulant 30 nM OXT; RT; fluorimetry; triplicate
Method: as §1

human V1aR [3] = biological target: T2, human V1aR (Homo sapiens, UniProt P37288); assay: V1aR functional assay, agonist effect (intracellular Ca^2+ increase, fluorimetry, CHO cells); assay type: cell-based; settings: up to 50 μM, RT, % of control response (1 µM AVP), triplicate
T2 construct: host or cells: CHO
Method: as §1

human V1aR [4] = biological target: T2, human V1aR; assay: V1aR functional assay, antagonist effect (10 nM AVP-induced intracellular Ca^2+, fluorimetry, CHO cells); assay type: cell-based; settings: all concentrations tested; CHO; stimulant 10 nM AVP; RT; fluorimetry; triplicate
Method: as §1

human V1bR [5] = biological target: T3, human V1bR (Homo sapiens, UniProt P47901); assay: V1bR functional assay, agonist effect (intracellular Ca^2+ increase, fluorimetry, RBL cells); assay type: cell-based; settings: up to 50 μM; RBL; RT; fluorimetry; % of control response (0.1 µM AVP); triplicate
T3 construct: host or cells: RBL
T3 sequence (P47901 1-424): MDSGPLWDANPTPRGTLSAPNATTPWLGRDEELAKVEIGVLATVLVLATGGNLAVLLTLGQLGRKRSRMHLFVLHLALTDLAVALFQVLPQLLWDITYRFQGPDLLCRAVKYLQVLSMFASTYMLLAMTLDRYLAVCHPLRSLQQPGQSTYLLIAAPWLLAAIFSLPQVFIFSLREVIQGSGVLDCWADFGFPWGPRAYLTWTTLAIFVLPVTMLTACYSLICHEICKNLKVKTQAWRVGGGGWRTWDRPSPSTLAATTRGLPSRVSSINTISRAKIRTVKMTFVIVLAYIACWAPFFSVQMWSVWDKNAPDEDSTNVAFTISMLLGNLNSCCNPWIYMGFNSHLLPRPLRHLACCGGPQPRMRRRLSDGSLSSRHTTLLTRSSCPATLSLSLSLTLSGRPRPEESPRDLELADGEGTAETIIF
Method: as §1

human V1bR [6] = biological target: T3, human V1bR; assay: V1bR functional assay, antagonist effect (5 nM AVP-induced intracellular Ca^2+, fluorimetry, RBL cells); assay type: cell-based; settings: all concentrations tested, stimulant 5 nM AVP, RT, triplicate
Method: as §1

human V2R [7] = biological target: T4, human V2R (Homo sapiens, UniProt P30518); assay: V2R functional assay, agonist effect (cAMP accumulation, HTRF, CHO cells); assay type: cell-based; settings: 50 μM; CHO; 30 min RT; HTRF; % of control response (1 nM AVP); triplicate
T4 construct: host or cells: CHO
Method: as §1

human V2R [8] = biological target: T4, human V2R; assay: V2R functional assay, antagonist effect (0.03 nM AVP-induced cAMP, HTRF, CHO cells); assay type: cell-based; settings: all concentrations tested, stimulant 0.03 nM AVP, 30 min RT, triplicate
Method: as §1

O. ocellatus = settings: ref [21]; cited from earlier work
Source text: (§2) These genes produce active nonapeptides, which are named octopressin (OTP) and cephalotocin (CPT). […] OTP was also reported to evoke hyperactivity in chromatophore cells, ra ...

Octopus vulgaris = settings: same species (Octopus vulgaris); ref [20]; cited from earlier work
Source text: as §2

[9] = test system: common cuttlefish (Sepia officinalis); settings: ref [22]; cited from earlier work
Source text: as §2

[10] = test system: oviduct, aorta, and rectum; settings: in vitro preparations of oviduct, ref [18]; cited from earlier work
Source text: as §2

T2 sequence (P37288 whole entry): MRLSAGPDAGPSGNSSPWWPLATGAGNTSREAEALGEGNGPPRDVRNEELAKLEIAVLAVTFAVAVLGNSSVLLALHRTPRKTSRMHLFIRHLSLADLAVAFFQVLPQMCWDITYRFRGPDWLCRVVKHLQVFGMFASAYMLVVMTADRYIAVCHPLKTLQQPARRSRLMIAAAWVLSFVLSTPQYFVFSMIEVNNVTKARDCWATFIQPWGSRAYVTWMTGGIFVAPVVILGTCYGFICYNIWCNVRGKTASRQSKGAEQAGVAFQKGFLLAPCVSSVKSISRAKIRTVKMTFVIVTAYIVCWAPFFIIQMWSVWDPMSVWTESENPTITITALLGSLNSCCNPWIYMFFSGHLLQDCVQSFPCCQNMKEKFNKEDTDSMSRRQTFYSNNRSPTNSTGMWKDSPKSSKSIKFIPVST

CYWTSCPIG-NH2 (disulfide bond) (disulfide) [OTP, octopressin, natural OXT/AVP analog from Octopus vulgaris, synthesized by solid-phase peptide synthesis]
OXTR-mediated intracellular Ca^2+ increase (agonist effect) (human OXTR [1]): did not seem to induce
inhibition rate of OXTR activation (human OXTR [2]): approximately 30%
V1aR-mediated intracellular Ca^2+ increase (agonist effect) (human V1aR [3]): did not seem to induce
antagonist effect against V1aR activation (human V1aR [4]): could not inhibit
V1bR-mediated intracellular Ca^2+ increase (agonist effect) (human V1bR [5]): did not seem to induce
antagonist effect against V1bR activation (human V1bR [6]): could not inhibit
V2R-mediated cAMP accumulation (agonist effect) (human V2R [7]): < 30%
antagonist effect against V2R activation (human V2R [8]): could not inhibit
hemolymph osmolality (O. ocellatus): decreases hemolymph osmolality
behavioral effect (Octopus vulgaris): hyperactivity in chromatophore cells, rapid respiration, and jetting water from the siphon
effect on long-term memory [9]: affect long-term memory
effect on peripheral tissues [10]: induced contractions
